Measurements reported in patent US10004701B2, “Methods and compositions for treating infection” (UNIVERSITY OF ROCHESTER, priority 2012, dated 2018).
Where a name gives a salt, the structure may show the parent alone. Read-outs that look alike come from different tables or passages of the source.

How the values were obtained:
Assay in all cases: AK assay 384-well format, Prestwick library screening
E. faecium = format: cell-based, Enterococcus faecium; settings: 50 μM final drug concentration; for fold induction at 50 µM: Enterococcus faecium, 3 h
[1] = tested on: S. aureus strain USA300-0114; format: cell-based, Staphylococcus aureus; settings: 50 μM final drug concentration; for fold induction at 50 µM: Staphylococcus aureus, USA300, 3 h
K. pneumoniae = format: cell-based, Klebsiella pneumoniae; settings: 50 μM final drug concentration; for fold induction at 50 µM: Klebsiella pneumoniae, 3 h
[2] = tested on: A. baumannii strain 98-37-09; format: cell-based, Acinetobacter baumannii; settings: 50 μM final drug concentration; for fold induction at 50 µM: Acinetobacter baumannii, 983709, 3 h
P. aeruginosa = format: cell-based, Pseudomonas aeruginosa; settings: 50 μM final drug concentration; for fold induction at 50 µM: Pseudomonas aeruginosa, 3 h
E. cloacae = format: cell-based, Enterobacter cloacae; settings: 50 μM final drug concentration; for fold induction at 50 µM: Enterobacter cloacae, 3 h
E. coli = format: cell-based, Escherichia coli; settings: 50 μM final drug concentration; for fold induction at 50 µM: Escherichia coli, 3 h
[3] = planktonic E. faecium, cutoff for positive-scoring molecules 3-fold increase, read-out: AK-based Prestwick Library Screening Results, E. faecium (increase in extracellular AK activity)
[4] = planktonic S. aureus, cutoff for positive-scoring molecules 3-fold increase, read-out: AK-based Prestwick Library Screening Results, S. aureus (increase in extracellular AK activity)
[5] = planktonic K. pneumoniae, cutoff for positive-scoring molecules 3-fold increase, read-out: AK-based Prestwick Library Screening Results, K. pneumoniae (increase in extracellular AK activity)
[6] = planktonic A. baumannii, cutoff for positive-scoring molecules 3-fold increase, read-out: AK-based Prestwick Library Screening Results, A. baumannii (increase in extracellular AK activity)
[7] = planktonic P. aeruginosa, cutoff for positive-scoring molecules 3-fold increase, read-out: AK-based Prestwick Library Screening Results, P. aeruginosa (increase in extracellular AK activity)
[8] = planktonic E. cloacae, cutoff for positive-scoring molecules 3-fold increase, read-out: AK-based Prestwick Library Screening Results, E. cloacae (increase in extracellular AK activity)
[9] = planktonic E. coli, cutoff for positive-scoring molecules 3-fold increase, read-out: AK-based Prestwick Library Screening Results, E. coli (increase in extracellular AK activity)
[10] = planktonic, […], read-out: AK-based Prestwick Library Screening Results, E. faecium (fold increase in extracellular AK activity)
[11] = planktonic, […], read-out: AK-based Prestwick Library Screening Results, S. aureus (fold increase in extracellular AK activity)
[12] = planktonic, […], read-out: AK-based Prestwick Library Screening Results, K. pneumoniae (fold increase in extracellular AK activity)
[13] = planktonic, […], read-out: AK-based Prestwick Library Screening Results, A. baumannii (fold increase in extracellular AK activity)
[14] = planktonic, […], read-out: AK-based Prestwick Library Screening Results, P. aeruginosa (fold increase in extracellular AK activity)
[15] = planktonic, […], read-out: AK-based Prestwick Library Screening Results, E. cloacae (fold increase in extracellular AK activity)
[16] = planktonic, […], read-out: AK-based Prestwick Library Screening Results, E. coli (fold increase in extracellular AK activity)
[17] = planktonic, cutoff for positive 3-fold increase
[18] = cutoff for positive-scoring molecules 3-fold increase

Work on `CC(C)N1CCN(c2ccc(OCC3COC(Cn4cncn4)(c4ccc(Cl)cc4Cl)O3)cc2)CC1` (stereo not shown) [Terconazole] yielded a fold induction at 50 µM (E. faecium; [3]) of 1, a fold induction at 50 µM [1, 4] of 0.6 and a fold induction at 50 µM (K. pneumoniae; [5]) of 0.7. It also gave a fold induction at 50 µM [2, 6] of 0.8, a fold induction at 50 µM (P. aeruginosa; [7]) of 0.8 and a fold induction at 50 µM (E. cloacae; [8]) of 0.9. For the same compound, the fold induction at 50 µM (E. coli; [9]) was 0.9.

In the case of `O=C(CCCN1CCN(c2ccccn2)CC1)c1ccc(F)cc1` [Azaperone], the fold induction at 50 µM (E. faecium; planktonic E. faecium, positive cutoff 3-fold increase, read-out: AK-based Prestwick library screening result, E. faecium (fold increase in extracellular AK activity)) is reported as 1, the fold induction at 50 µM ([1]; planktonic S. aureus, positive cutoff 3-fold increase, read-out: AK-based Prestwick library screening result, S. aureus (fold increase in extracellular AK activity)) is reported as 1.2 and the fold induction at 50 µM (K. pneumoniae; planktonic K. pneumoniae, positive cutoff 3-fold increase, read-out: AK-based Prestwick library screening result, K. pneumoniae (fold increase in extracellular AK activity)) is reported as 1. The fold induction at 50 µM ([2]; planktonic A. baumannii, positive cutoff 3-fold increase, read-out: AK-based Prestwick library screening result, A. baumannii (fold increase in extracellular AK activity)) was 1.2, the fold induction at 50 µM (P. aeruginosa; planktonic P. aeruginosa, positive cutoff 3-fold increase, read-out: AK-based Prestwick library screening result, P. aeruginosa (fold increase in extracellular AK activity)) was 1 and the fold induction at 50 µM (E. cloacae; planktonic E. cloacae, positive cutoff 3-fold increase, read-out: AK-based Prestwick library screening result, E. cloacae (fold increase in extracellular AK activity)) was 1.9. The fold induction at 50 µM (E. coli; planktonic E. coli, positive cutoff 3-fold increase, read-out: AK-based Prestwick library screening result, E. coli (fold increase in extracellular AK activity)) was 1.1.

In the case of `CC[C@H]1[C@@H]2C[C@H]3[C@@H]4N(C)c5ccccc5[C@]45C[C@@H]([C@H]2[C@H]5O)N3[C@@H]1O` [Ajmaline], the fold induction at 50 µM (E. faecium; [10]) is reported as 1.1, the fold induction at 50 µM [1, 11] is reported as 1 and the fold induction at 50 µM (K. pneumoniae; [12]) is reported as 0.9. The fold induction at 50 µM [2, 13] was 1.1, the fold induction at 50 µM (P. aeruginosa; [14]) was 1.1 and the fold induction at 50 µM (E. cloacae; [15]) was 1.6. It also gave a fold induction at 50 µM (E. coli; [16]) of 1.2.

`CC1=C(C(=O)O)N2C(=O)[C@@H](NC(=O)[C@H](N)c3ccc(O)cc3)[C@H]2SC1` [Cefadroxil] was tested, and the fold induction at 50 µM (E. faecium; [3]) was 0.8, the fold induction at 50 µM [1, 4] was 0.5 and the fold induction at 50 µM (K. pneumoniae; [5]) was 0.8. For the same compound, the fold induction at 50 µM [2, 6] was 0.9, the fold induction at 50 µM (P. aeruginosa; [7]) was 0.8 and the fold induction at 50 µM (E. cloacae; [8]) was 1.2. The fold induction at 50 µM (E. coli; [9]) was 0.9.

`O=C1NCCN1c1ncc([N+](=O)[O-])s1` [Niridazole] gave a fold induction at 50 µM (E. faecium; planktonic, cutoff for positive 3-fold increase, read-out: AK-based Prestwick Library Screening Results, E. faecium (fold increase in extracellular AK activity)) of 1, a fold induction at 50 µM ([1]; planktonic, cutoff for positive 3-fold increase, read-out: AK-based Prestwick Library Screening Results, S. aureus (fold increase in extracellular AK activity)) of 1.8 and a fold induction at 50 µM (K. pneumoniae; planktonic, cutoff for positive 3-fold increase, read-out: AK-based Prestwick Library Screening Results, K. pneumoniae (fold increase in extracellular AK activity)) of 6. For the same compound, the fold induction at 50 µM ([2]; planktonic, cutoff for positive 3-fold increase, read-out: AK-based Prestwick Library Screening Results, A. baumannii (fold increase in extracellular AK activity)) was 1.4, the fold induction at 50 µM (P. aeruginosa; planktonic, cutoff for positive 3-fold increase, read-out: AK-based Prestwick Library Screening Results, P. aeruginosa (fold increase in extracellular AK activity)) was 1.2 and the fold induction at 50 µM (E. cloacae; planktonic, cutoff for positive 3-fold increase, read-out: AK-based Prestwick Library Screening Results, E. cloacae (fold increase in extracellular AK activity)) was 6.1. The fold induction at 50 µM (E. coli; planktonic, cutoff for positive 3-fold increase, read-out: AK-based Prestwick Library Screening Results, E. coli (fold increase in extracellular AK activity)) was 13.2.

With Terbutaline hemisulfate the “AK-based Prestwick Library Screening Results, E. faecium (fold increase in extracellular AK activity)” value (E. faecium; [17]) was 1.0, the “AK-based Prestwick Library Screening Results, S. aureus (fold increase in extracellular AK activity)” value [1, 17] was 1.1 and the “AK-based Prestwick Library Screening Results, K. pneumoniae (fold increase in extracellular AK activity)” value (K. pneumoniae; [17]) was 1.3. For the same compound, the “AK-based Prestwick Library Screening Results, A. baumannii (fold increase in extracellular AK activity)” value [2, 17] was 1.1, the “AK-based Prestwick Library Screening Results, P. aeruginosa (fold increase in extracellular AK activity)” value (P. aeruginosa; [17]) was 1.1 and the “AK-based Prestwick Library Screening Results, E. cloacae (fold increase in extracellular AK activity)” value (E. cloacae; [17]) was 1.4. For the same compound, the “AK-based Prestwick Library Screening Results, E. coli (fold increase in extracellular AK activity)” value (E. coli; [17]) was 1.2.

For Timolol maleate salt, the “AK-based Prestwick Library Screening Results, E. faecium (fold increase in extracellular AK activity)” value (E. faecium; [18]) was 1.0, the “AK-based Prestwick Library Screening Results, S. aureus (fold increase in extracellular AK activity)” value [1, 18] was 1.3 and the “AK-based Prestwick Library Screening Results, K. pneumoniae (fold increase in extracellular AK activity)” value (K. pneumoniae; [18]) was 1.1. For the same compound, the “AK-based Prestwick Library Screening Results, A. baumannii (fold increase in extracellular AK activity)” value [2, 18] was 1.5, the “AK-based Prestwick Library Screening Results, P. aeruginosa (fold increase in extracellular AK activity)” value (P. aeruginosa; [18]) was 1.1 and the “AK-based Prestwick Library Screening Results, E. cloacae (fold increase in extracellular AK activity)” value (E. cloacae; [18]) was 1.4. The “AK-based Prestwick Library Screening Results, E. coli (fold increase in extracellular AK activity)” value (E. coli; [18]) was 1.3.

`CC(C)N(CCC(C(N)=O)(c1ccccc1)c1ccccn1)C(C)C` (stereo not shown) [Disopyramide] showed a fold induction at 50 µM (E. faecium; 384-well format, cutoff for positive-scoring molecules 3-fold increase, read-out: AK-based Prestwick Library Screening Results, E. faecium (increase in extracellular AK activity)) of 0.9, a fold induction at 50 µM ([1]; 384-well format, cutoff for positive-scoring molecules 3-fold increase, read-out: AK-based Prestwick Library Screening Results, S. aureus (increase in extracellular AK activity)) of 2.7 and a fold induction at 50 µM (K. pneumoniae; 384-well format, cutoff for positive-scoring molecules 3-fold increase, read-out: AK-based Prestwick Library Screening Results, K. pneumoniae (increase in extracellular AK activity)) of 0.6. The fold induction at 50 µM ([2]; 384-well format, cutoff for positive-scoring molecules 3-fold increase, read-out: AK-based Prestwick Library Screening Results, A. baumannii (increase in extracellular AK activity)) was 0.9, the fold induction at 50 µM (P. aeruginosa; 384-well format, cutoff for positive-scoring molecules 3-fold increase, read-out: AK-based Prestwick Library Screening Results, P. aeruginosa (increase in extracellular AK activity)) was 0.9 and the fold induction at 50 µM (E. cloacae; 384-well format, cutoff for positive-scoring molecules 3-fold increase, read-out: AK-based Prestwick Library Screening Results, E. cloacae (increase in extracellular AK activity)) was 1. The fold induction at 50 µM (E. coli; 384-well format, cutoff for positive-scoring molecules 3-fold increase, read-out: AK-based Prestwick Library Screening Results, E. coli (increase in extracellular AK activity)) was 0.9.

In the case of `CCN1C[C@]2(COC)CC[C@H](OC)[C@]34C5C[C@@H]6[C@@H](OC)C[C@@]7(OCO[C@@]7(C13)[C@@H](O)C24)C5[C@H]6OC` (stereo partly shown) [Delcorine], the fold induction at 50 µM (E. faecium; [10]) is reported as 0.9, the fold induction at 50 µM [1, 11] is reported as 0.7 and the fold induction at 50 µM (K. pneumoniae; [12]) is reported as 0.7. For the same compound, the fold induction at 50 µM [2, 13] was 0.9, the fold induction at 50 µM (P. aeruginosa; [14]) was 0.9 and the fold induction at 50 µM (E. cloacae; [15]) was 1.2. For the same compound, the fold induction at 50 µM (E. coli; [16]) was 0.8.

`CN1[C@@H]2C[C@@H](OC(=O)[C@H](CO)c3ccccc3)C[C@H]1[C@@H]1O[C@@H]12` [Scopolamine hydrochloride] gave a fold induction at 50 µM (E. faecium; […], read-out: AK-based Prestwick Library Screening Results, E. faecium (fold increase in extracellular AK activity)) of 1, a fold induction at 50 µM ([1]; […], read-out: AK-based Prestwick Library Screening Results, S. aureus (fold increase in extracellular AK activity)) of 1.2 and a fold induction at 50 µM (K. pneumoniae; […], read-out: AK-based Prestwick Library Screening Results, K. pneumoniae (fold increase in extracellular AK activity)) of 1.1. It also gave a fold induction at 50 µM ([2]; […], read-out: AK-based Prestwick Library Screening Results, A. baumannii (fold increase in extracellular AK activity)) of 1.2, a fold induction at 50 µM (P. aeruginosa; […], read-out: AK-based Prestwick Library Screening Results, P. aeruginosa (fold increase in extracellular AK activity)) of 1.1 and a fold induction at 50 µM (E. cloacae; […], read-out: AK-based Prestwick Library Screening Results, E. cloacae (fold increase in extracellular AK activity)) of 1.5. For the same compound, the fold induction at 50 µM (E. coli; […], read-out: AK-based Prestwick Library Screening Results, E. coli (fold increase in extracellular AK activity)) was 1.2.
